Results on 15 molecules are retold here after patent publication US7473698B2, “Secondary amino anilinic piperidines as MCH1 antagonists and uses thereof” (H. Lunbeck A/S, priority 2003, dated 2009).

As usually defined, the Ki is the dissociation constant of the complex between target and ligand, obtained from inhibition or displacement. The term Kd denotes the free concentration of one partner at which half of the binding sites on the other are occupied at equilibrium, for simple one-to-one binding.

Assay [1] addresses T1, rat MCH-1 (Rattus norvegicus, UniProt P97639). Briefly: Radioligand binding assay at cloned rat MCH1 receptor, [3H]Compound A, Peakr293 cell membranes. Further details: expressed in transfected cells; host or cells: Human embryonic kidney Peak rapid 293 cells (Peakr293), transient, calcium phosphate; membranes. The following applies: 0.08 nM [3H]Compound A, 25° C., 90 minutes. The method, then:
For binding assays, pellets of transfected cells are suspended in ice-cold buffer (20 mM Tris.HCl, 5 mM EDTA, pH 7.4) and homogenized by sonication for 7 sec. The cell lysates are centrifuged at 200×g for 5 min at 4° C. The supernatants are then centrifuged at 40,000×g for 20 min at 4° C. The resulting pellets are washed once in the homogenization buffer and suspended in binding buffer (see methods for radioligand binding). Protein concentrations are determined by the method of Bradford (1976) using bovine serum albumin as the standard. Binding assays are usually performed immediately, however it is possible to prepare membranes in batch and store frozen in liquid nitrogen for future use.
Radioligand binding assays for the rat MCH1 receptor were carried out using plasmid pcDNA3.1-rMCH1-f (ATCC Patent Deposit Designation No. PTA-3505). Plasmid pcDNA3.1-rMCH1-f comprises the regulatory elements necessary for expression of DNA in a mammalian cell operatively linked to DNA encoding the rat MCH1 receptor so as to permit expression thereof. Plasmid pcDNA3.1-rMCH1-f was deposited on Jul. 5, 2001, with the American Type Culture Collection (ATCC), 12301 Parklawn Drive, Rockville, Md. 20852, U.S.A. under the provisions of the Budapest Treaty for the International Recognition of the Deposit of Microorganisms for the Purposes of Patent Procedure and was accorded ATCC Patent Deposit Designation No. PTA-3505.
Human embryonic kidney Peak rapid 293 cells (Peakr293 cells) were transiently transfected with DNA encoding the MCH1 receptor utilizing the calcium phosphate method and cell membranes were prepared as described above. Binding experiments with membranes from Peakr293 cells transfected with the rat MCH1 receptor were performed with 0.08 nM [^3H]Compound A (custom labeled by Amersham) (the synthesis of Compound A is described in detail below) using an incubation buffer consisting of 50 mM Tris pH 7.4, 10 mM MgCl2, 0.16 mM PMSF, 1 mM 1,10 phenantroline and 0.2% BSA. Binding was performed at 25° C. for 90 minutes. Incubations were terminated by rapid vacuum filtration over GF/C glass fiber filters, presoaked in 5% PEI using […] Tris pH 7.4 as wash buffer. In all experiments, nonspecific binding is defined using […] Compound A.
The compounds described above were assayed using cloned rat MCH1.

For another assay, the system named is G4F-7 cells. The following applies: cited from earlier work.
Assay [2] addresses T1, rat MCH-1. The following applies: one range printed for rat and human; cited from earlier work.
The target of the next assay is human MCH-1 (Homo sapiens, UniProt Q99705). The following applies: one range printed for rat and human; cited from earlier work.
A further assay addresses MCH-1 receptor (Rattus norvegicus, UniProt P97639). The following applies: in vivo; cited from earlier work.

T1 sequence (P97639 whole entry): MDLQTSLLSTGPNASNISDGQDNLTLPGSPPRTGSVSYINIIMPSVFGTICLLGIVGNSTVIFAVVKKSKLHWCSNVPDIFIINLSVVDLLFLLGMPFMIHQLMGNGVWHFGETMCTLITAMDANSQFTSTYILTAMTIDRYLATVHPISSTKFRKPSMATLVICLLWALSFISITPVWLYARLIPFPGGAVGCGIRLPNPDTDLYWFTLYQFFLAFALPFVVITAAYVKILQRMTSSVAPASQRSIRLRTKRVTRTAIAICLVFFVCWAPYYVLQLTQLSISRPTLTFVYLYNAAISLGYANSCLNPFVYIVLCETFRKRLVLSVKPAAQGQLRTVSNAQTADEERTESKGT
Sequence of MCH-1 receptor (P97639 whole entry): as above
Sequence of human MCH-1 (Q99705 whole entry): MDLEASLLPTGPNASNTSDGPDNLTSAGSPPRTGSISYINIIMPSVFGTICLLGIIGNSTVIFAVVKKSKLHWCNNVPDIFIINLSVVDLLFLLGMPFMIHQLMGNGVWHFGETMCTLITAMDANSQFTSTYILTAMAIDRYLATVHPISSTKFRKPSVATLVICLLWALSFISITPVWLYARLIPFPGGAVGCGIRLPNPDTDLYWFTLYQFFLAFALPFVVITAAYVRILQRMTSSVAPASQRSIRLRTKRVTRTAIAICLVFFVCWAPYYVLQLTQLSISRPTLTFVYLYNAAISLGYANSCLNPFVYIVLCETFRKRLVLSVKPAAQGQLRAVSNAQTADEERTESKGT

With `COc1ccc(CCCCC(=O)Nc2cccc(C3CCNCC3)c2)cc1` [Example 5, 5-(4-Methoxyphenyl)-N-[3-(4-Piperidinyl)Phenyl]Pentanamide], at rat MCH-1 [1], the Ki was 476 nM.

As to `COc1ccccc1CCCCC(=O)Nc1cc(C2CCNCC2)ccc1F` [Example 10, N-[2-Fluoro-5-(4-Piperidinyl)Phenyl]-5-(2-Methoxyphenyl)Pentanamide], the Ki at rat MCH-1 [1] was 20.9 nM.

For the molecule [Phe^13,Tyr^19]-MCH, the Kd in the assay with G4F-7 cells (radioiodinated ligand, G4F-7 cells) was 0.118 nM.

On to `O=C(CCCCC(=O)c1ccccc1)Nc1cc(C2CCNCC2)ccc1F` [Example 9, N-[2-Fluoro-5-(4-Piperidinyl) Phenyl]-6-Oxo-6-Phenylhexanamide], for which the Ki at rat MCH-1 [1] is 313 nM.

On to `COc1ccccc1CCCCC(=O)Nc1cc(C2CCNCC2)c(F)cc1F` [Example 11, N-[2,4-Difluoro-5-(4-Piperidinyl)Phenyl]-5-(2-Methoxyphenyl)Pentanamide], for which, on rat MCH-1 [1], the Ki stood at 46.6 nM.

On to “native MCH: Melanin-concentrating hormone, a cyclic peptide”, for which the Ki in the assay with G4F-7 cells (inhibition of radioiodinated [Phe13,Tyr19]-MCH binding) was 12 nM.

As for `COc1ccccc1CCCCC(=O)Nc1cccc(C2CCNCC2)c1` [Example 1, 5-(2-Methoxyphenyl)-N-[3-(4-Piperidinyl)Phenyl]Pentanamide], the Ki at rat MCH-1 [1] is 79.6 nM.

`O=C(CCCCC(=O)c1ccccc1)Nc1cccc(C2CCNCC2)c1` [Example 3, 6-Oxo-6-Phenyl-N-[3-(4-Piperidinyl)Phenyl]Hexanamide]: on rat MCH-1 [1], the Ki came out at 1100 nM.

For the molecule α-MSH, in the assay on G4F-7 cells (inhibition of radioiodinated [Phe13,Tyr19]-MCH binding, in words), the inhibition of binding result was “not inhibited”.

`O=C(CCc1ccc(Oc2ccc(F)c(F)c2)cc1)Nc1cc(C2CCNCC2)ccc1F` [Example 12, 3-[4-(3,4-Difluorophenoxy)Phenyl]-N-[2-Fluoro-5-(4-Piperidinyl)Phenyl]Propanamide]: the Ki at rat MCH-1 [1] worked out at 33.8 nM.

`O=C(Nc1cccc(C2CCNCC2)c1)c1cccnc1Oc1ccccc1` [Example 4, 2-Phenoxy-N-[3-(4-Piperidinyl) Phenyl]Nicotinamide]: on rat MCH-1 [1], the Ki stood at 353 nM.

For the molecule `COC(=O)C1=C(C)NC(=O)N(C(=O)NCCCC(=O)Nc2cccc(C3CCNCC3)c2)C1c1ccc(F)cc1` (centres unmarked) [Example 7, Methyl 4-(4-Fluorophenyl)-6-Methyl-2-Oxo-3-[({4-OXO-4-[3-(4-Piperidinyl)Anilino]Butyl}Amino)Carbonyl]-1,2,3,4-Tetrahydro-5-Pyrimidinecarboxylate], on rat MCH-1 [1], the Ki stood at 142 nM.

Turning to `CN(C)CC1CCc2cc(NC(=O)c3ccc(-c4ccc(F)cc4)cc3)ccc2C1` (centres unmarked) [Example T-226296], the “affinity for the MCH-1 receptor” value at rat MCH-1 [2] and on human MCH-1 was 5 to 9 nM in each case. In addition, the “food intake induced by the intracerebroventricular application of MCH” value at MCH-1 receptor is recorded as “inhibit food intake”.

Regarding `O=C(CCCCCNc1ccc(F)c(F)c1)Nc1cccc(C2CCNCC2)c1` [Example 6, 6-(3,4-Difluoroanilino)-N-[3-(4-Piperidinyl) Phenyl]Hexanamide], the Ki on rat MCH-1 [1] was found to be 438 nM.

Regarding `O=C(CCCCc1ccccc1)Nc1cccc(C2CCNCC2)c1` [Example 2, 5-Phenyl-N-[3-(4-Piperidinyl)Phenyl]Pentanamide], the Ki on rat MCH-1 [1] was 197 nM.
